{
  "source": "patent US11008572B2",
  "about": "“Methods and compositions for modulating splicing” (SKYHAWK THERAPEUTICS, INC., priority 2017, dated 2021)",
  "data": [
    {"system": "A-673 cells", "experiment": "Cell viability, crystal violet staining", "type": "cell-based", "settings": "Homo sapiens, A673, cell viability, read-out: A-673 IC50 (nM) Cell viability", "protocol": "To measure cell viability, cells were plated in 96-well plastic tissue culture plates at a density of 5×10^3 cells/well. Twenty-four hours after plating, cells were treated with various SMSMs. After 72 hours, the cell culture media were removed and plates were stained with […] of a solution containing 0.5% crystal violet and 25% methanol, rinsed with deionized water, dried overnight, and resuspended in […] citrate buffer (0.1 M sodium citrate in 50% ethanol) to assess plating efficiency. Intensity of crystal violet staining, assessed at 570 nm and quantified using a Vmax Kinetic Microplate Reader and Softmax software (Molecular Devices Corp., Menlo Park, Calif.), were directly proportional to cell number. Data were normalized to vehicle-treated cells and were presented as the mean±SE from representative experiments. SMSMs that are effective were determined for various cells lines.\nA-673 cell viability […], splicing (IC50) and brain AUC/Plasma AUC of SMSMs were determined. As shown in the tables below SMSMs had high CNS exposure.", "units": {"IC50": "nM"}, "values": [
      {"compound": "Oc1cc(-c2cn[nH]c2)ccc1-c1ccc(N2CCC23CCNCC3)nn1", "note": "[compound 132, 2-(6-(1,7-diazaspiro[3.5]nonan-1-yl)pyridazin-3-yl)-5-(1H-pyrazol-4-yl)phenol]", "IC50": "> 1000"},
      {"compound": "CN(c1ccc(-c2ccc(-c3cn[nH]c3)cc2O)nn1)[C@@H]1C[C@]2(C)CC[C@](C)(C1)N2", "note": "[compound 150, 2-(6-(((1R,3r,5S)-1,5-dimethyl-8-azabicyclo[3.2.1]octan-3-yl)(methyl)amino)pyridazin-3-yl)-5-(1H-pyrazol-4-yl)phenol]", "IC50": "> 1000"},
      {"compound": "CN(c1ccc(-c2ccc(-c3cn[nH]c3)cc2O)nn1)[C@H]1C[C@]2(C)COC[C@](C)(C1)N2", "note": "[compound 156, 2-(6-(((1R,5S,7r)-1,5-dimethyl-3-oxa-9-azabicyclo[3.3.1]nonan-7-yl)(methyl)amino)pyridazin-3-yl)-5-(1H-pyrazol-4-yl)phenol]", "IC50": "10 to 100"},
      {"compound": "CN(c1ccc(-c2ccc(-c3cn[nH]c3)cc2O)nn1)[C@@H]1C[C@]2(C)COC[C@](C)(C1)N2", "note": "[compound 157, 2-(6-(((1R,5S,7s)-1,5-dimethyl-3-oxa-9-azabicyclo[3.3.1]nonan-7-yl)(methyl)amino)pyridazin-3-yl)-5-(1H-pyrazol-4-yl)phenol]", "IC50": "> 1000"},
      {"compound": "COc1ccc2cc(-c3ccc(N(C)[C@@H]4C[C@H]5CC[C@@H](C4)N5)nn3)c(O)cc2c1", "note": "[compound 163, 3-(6-(((1R,3s,5S)-8-azabicyclo[3.2.1]octan-3-yl)(methyl)amino)pyridazin-3-yl)-7-methoxynaphthalen-2-ol]", "IC50": "101 to 250"},
      {"compound": "CN(c1ccc(-c2cc3ccc(OCF)cc3cc2O)nn1)[C@@H]1C[C@H]2CC[C@@H](C1)N2", "note": "[compound 165, 3-(6-(((1R,3s,5S)-8-azabicyclo[3.2.1]octan-3-yl)(methyl)amino)pyridazin-3-yl)-7-(fluoromethoxy)naphthalen-2-ol]", "IC50": "10 to 100"},
      {"compound": "CN(c1ccc(-c2cc3ccc(OC(F)F)cc3cc2O)nn1)[C@@H]1C[C@H]2CC[C@@H](C1)N2", "note": "[compound 166, 3-(6-(((1R,3s,5S)-8-azabicyclo[3.2.1]octan-3-yl)(methyl)amino)pyridazin-3-yl)-7-(difluoromethoxy)naphthalen-2-ol]", "IC50": "501 to 1000"},
      {"compound": "[2H]C([2H])([2H])n1cc(-c2ccc(-c3ccc(N(C)[C@H]4C[C@]5(C)CC[C@](C)(C4)N5)nn3)c(O)c2)cn1", "note": "[compound 171, 2-(6-(((1R,3s,5S)-1,5-dimethyl-8-azabicyclo[3.2.1]octan-3-yl)(methyl)amino)pyridazin-3-yl)-5-(1-(methyl-d3)-1H-pyrazol-4-yl)phenol]", "IC50": "10 to 100"},
      {"compound": "[2H]C([2H])([2H])Oc1cc(-c2ccc(-c3ccc(N(C)[C@H]4C[C@]5(C)CC[C@](C)(C4)N5)nn3)c(O)c2)ccn1", "note": "[compound 172, 2-(6-(((1R,3s,5S)-1,5-dimethyl-8-azabicyclo[3.2.1]octan-3-yl)(methyl)amino)pyridazin-3-yl)-5-(2-(methoxy-d3)pyridin-4-yl)phenol]", "IC50": "< 10"},
      {"compound": "COc1cc(-c2ccc(-c3ccc(N(C)[C@H]4C[C@]5(C)CC[C@](C)(C4)N5)nn3)c(O)c2)ccn1", "note": "[compound 173, 2-(6-(((1R,3s,5S)-1,5-dimethyl-8-azabicyclo[3.2.1]octan-3-yl)(methyl)amino)pyridazin-3-yl)-5-(2-methoxypyridin-4-yl)phenol]", "IC50": "< 10"},
      {"compound": "CN(c1ccc(-c2ccc(-c3cnn(CF)c3)cc2O)nn1)[C@H]1C[C@]2(C)CC[C@](C)(C1)N2", "note": "[compound 174, 2-(6-(((1R,3s,5S)-1,5-dimethyl-8-azabicyclo[3.2.1]octan-3-yl)(methyl)amino)pyridazin-3-yl)-5-(1-(fluoromethyl)-1H-pyrazol-4-yl)phenol]", "IC50": "< 10"}
    ]},
    {"system": "FOXM1^A2 mRNA and FOXM1^BC mRNA", "experiment": "Splicing assay (FOXM1), qPCR of isoform mRNAs", "type": "cell-based", "settings": "FoxM1 A mRNA increase (exon excluded); read-out: Splice EC50 (nM) FoxM1 A mRNA increase (exon excluded)", "protocol": "(§1) Various cells lines were treated with the SMSMs described herein. RNA was then isolated, cDNA synthesized, qPCR performed and the levels of various mRNA targets of the SMSMs were determined. In some instances, RNA was isolated, cDNA synthesized, qPCR performed and the levels of mRNA isoforms in the various cell samples were determined.\n(§2) On the day of the experiment, a 96-well plate was seeded with the cell lines of interest. The cells were diluted with full growth media to a concentration of 2.0×10^5 cells/mL and 100 μL of cells were added to each well (20,000 cells per well). The cells were treated with a compound immediately after plating.\n(§3) The compounds were then added to the cell plate using the HP compound dispenser. In the initial experiment, a top concentration of 10 μM and an 8 point 4-fold dilution scheme was used. The stock compounds were made at a concentration of 5 mM, and the DMSO concentration was set to 0.2%. DMSO was used to normalize all the compound-containing wells and the untreated cells.\n(§4) The treated cells were incubated at 37° C. in a 5% CO2 incubator for the desired amount of time. Plates were placed in a plastic bag with a wet paper towel to prevent evaporation.\n(§5) RNA was isolated using the Cells to CT kit (ThermoFisher, AM1728). The cells were washed once with 100 μL cold PBS. 50 μL of lysis buffer was added to each well/tube (49.5 μL lysis buffer+0.5 μL DNase I per well/tube). The lysis reaction was mixed and incubated at room temperature for 5 minutes. 5 μL of stop solution was added directly into each cell lysis reaction and mixed by pipetting up and down 5 times. The plates/tubes were incubated at room temperature for 2 minutes then placed on ice if the cDNA synthesis was to be performed immediately. Otherwise, the plates/tubes were stored at −80° C. cDNA synthesis reactions were then performed. Reverse Transcription (RT) Master mix was prepared according to the table below.\n(§6) 40 μL RT master mix was added to PCR tubes or plate wells. 10 μL of RNA was added to each tube/well. The RT thermal cycler program was then run and tubes or plate wells were incubated at 37° C. for 1 hour, then at 95° C. for 5 minutes to deactivate the enzyme.\n(§7) The qPCR was performed using a QuantStudio 6 instrument (ThermoFisher) and the following cycling conditions and according to the tables below. All samples and standards were analyzed in triplicate. Cycle 1: 2 minutes at 50° C. Cycle 2: 10 minutes at 95° C. Cycle 3 (repeat 40 times): 15 seconds at 95° C., 1 minute at 60° C.\n(§8) The determined isoform 2and isoform 1quantities were then be used to determine the isoform 2: […] at the various compound concentrations. The PPIA quantities were used in the normalization to account of cell proliferation effects of the compounds.\n(§9) The dilution necessary to make the top standard is calculated. A top concentration 200,000,000 copies/μL of the stock plasmid was prepared in TE buffer. A series of 10-fold dilutions, also in TE, were then made. A total of 5 μL of each standard was used in a qPCR well to generate samples containing 109 copies, […], 10^7copies, 10^6 copies, 10^5 copies, 10^4 copies, 10^3 copies, 10^2 copies, 10^1copies, and 0 copies.\n(§10) An assay to measure the FOXM1^A2 mRNA and FOXM1^BC mRNA, or MADD^WT (isoform 4) mRNA and MADD^Ex16 (isoform 3) mRNA, or MAPTau^4R mRNA and MAPTau^3R mRNA simultaneously in cell wells was performed. The RNA values were measured relative to DMSO control and also included a housekeeping gene, PPIA to ensure data was consistent. The mRNA values were measured after 24 hours of incubation with the SMSM compounds.", "units": {"EC50": "nM"}, "values": [
      {"compound": "2-(6-(((1R,3s,5S)-1,5-dimethyl-8-azabicyclo[3.2.1]octan-3-yl)(methyl)amino)pyridazin-3-yl)-5-(4-methyl-1H-imidazol-1-yl)phenol [compound 177]", "EC50": "< 10"}
    ]},
    {"system": "FOXM1^A2 mRNA and FOXM1^BC mRNA", "experiment": "Splicing assay (FOXM1), qPCR of isoform mRNAs", "type": "cell-based", "settings": "FoxM1 BC mRNA decrease (exon included); read-out: Splice IC50 (nM) FoxM1 BC mRNA decrease (exon included)", "protocol": "as §1, §2, §3, §4, §5, §6, §7, §8, §9, §10", "units": {"IC50": "nM"}, "values": [
      {"compound": "2-(6-(((1R,3s,5S)-1,5-dimethyl-8-azabicyclo[3.2.1]octan-3-yl)(methyl)amino)pyridazin-3-yl)-5-(4-methyl-1H-imidazol-1-yl)phenol [compound 177]", "IC50": "< 10"}
    ]}
  ]
}
